Experimental data published in ChEMBL document CHEMBL1201862, “PubChem BioAssay data set” (2004).
Calls of active or inactive are those of the source.

Columns and labels:
Tumor necrosis factor = Tumor necrosis factor (Homo sapiens, UniProt P01375); assay: TNFa-triggered NF-kB activation inhibitors, SAR follow-up, cell-based, revised (AID 2337); assay type: functional
[1] = biological target: T1, Nucleotide-binding oligomerization domain-containing protein 1 (Homo sapiens, UniProt Q9Y239); assay: NOD1 signaling inhibitors, SAR follow-up, revised (AID 2333); assay type: functional
T1 sequence (Q9Y239 whole entry): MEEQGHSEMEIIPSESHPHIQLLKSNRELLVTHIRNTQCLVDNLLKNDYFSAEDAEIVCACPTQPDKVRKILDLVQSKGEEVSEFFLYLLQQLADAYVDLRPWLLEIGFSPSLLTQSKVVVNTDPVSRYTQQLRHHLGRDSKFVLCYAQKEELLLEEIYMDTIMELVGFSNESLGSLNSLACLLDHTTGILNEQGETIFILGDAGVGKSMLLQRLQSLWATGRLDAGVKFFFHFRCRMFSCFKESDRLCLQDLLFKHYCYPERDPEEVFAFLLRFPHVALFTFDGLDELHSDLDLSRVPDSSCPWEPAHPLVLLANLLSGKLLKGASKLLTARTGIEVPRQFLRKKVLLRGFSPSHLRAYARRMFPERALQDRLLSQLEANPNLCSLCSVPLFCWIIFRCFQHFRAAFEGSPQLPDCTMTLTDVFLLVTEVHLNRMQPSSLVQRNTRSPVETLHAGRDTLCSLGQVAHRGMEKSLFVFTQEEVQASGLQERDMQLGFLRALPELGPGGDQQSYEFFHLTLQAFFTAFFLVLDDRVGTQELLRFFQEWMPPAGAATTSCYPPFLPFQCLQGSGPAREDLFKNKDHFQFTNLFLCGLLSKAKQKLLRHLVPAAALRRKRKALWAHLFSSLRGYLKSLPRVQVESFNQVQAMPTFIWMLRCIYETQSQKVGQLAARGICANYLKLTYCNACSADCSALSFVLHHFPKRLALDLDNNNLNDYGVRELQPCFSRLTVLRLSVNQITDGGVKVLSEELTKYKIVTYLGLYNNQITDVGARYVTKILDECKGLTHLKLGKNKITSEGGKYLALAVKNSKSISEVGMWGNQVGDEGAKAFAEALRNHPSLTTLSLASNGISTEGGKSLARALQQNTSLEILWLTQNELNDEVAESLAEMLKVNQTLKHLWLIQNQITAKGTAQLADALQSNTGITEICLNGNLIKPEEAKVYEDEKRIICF

[2] = biological target: Nucleotide-binding oligomerization domain-containing protein 2 (Homo sapiens, UniProt Q9HC29); assay: PubChem AID 2334; assay type: functional
Chain of Nucleotide-binding oligomerization domain-containing protein 2 (Q9HC29 whole entry, the tested form may be a part): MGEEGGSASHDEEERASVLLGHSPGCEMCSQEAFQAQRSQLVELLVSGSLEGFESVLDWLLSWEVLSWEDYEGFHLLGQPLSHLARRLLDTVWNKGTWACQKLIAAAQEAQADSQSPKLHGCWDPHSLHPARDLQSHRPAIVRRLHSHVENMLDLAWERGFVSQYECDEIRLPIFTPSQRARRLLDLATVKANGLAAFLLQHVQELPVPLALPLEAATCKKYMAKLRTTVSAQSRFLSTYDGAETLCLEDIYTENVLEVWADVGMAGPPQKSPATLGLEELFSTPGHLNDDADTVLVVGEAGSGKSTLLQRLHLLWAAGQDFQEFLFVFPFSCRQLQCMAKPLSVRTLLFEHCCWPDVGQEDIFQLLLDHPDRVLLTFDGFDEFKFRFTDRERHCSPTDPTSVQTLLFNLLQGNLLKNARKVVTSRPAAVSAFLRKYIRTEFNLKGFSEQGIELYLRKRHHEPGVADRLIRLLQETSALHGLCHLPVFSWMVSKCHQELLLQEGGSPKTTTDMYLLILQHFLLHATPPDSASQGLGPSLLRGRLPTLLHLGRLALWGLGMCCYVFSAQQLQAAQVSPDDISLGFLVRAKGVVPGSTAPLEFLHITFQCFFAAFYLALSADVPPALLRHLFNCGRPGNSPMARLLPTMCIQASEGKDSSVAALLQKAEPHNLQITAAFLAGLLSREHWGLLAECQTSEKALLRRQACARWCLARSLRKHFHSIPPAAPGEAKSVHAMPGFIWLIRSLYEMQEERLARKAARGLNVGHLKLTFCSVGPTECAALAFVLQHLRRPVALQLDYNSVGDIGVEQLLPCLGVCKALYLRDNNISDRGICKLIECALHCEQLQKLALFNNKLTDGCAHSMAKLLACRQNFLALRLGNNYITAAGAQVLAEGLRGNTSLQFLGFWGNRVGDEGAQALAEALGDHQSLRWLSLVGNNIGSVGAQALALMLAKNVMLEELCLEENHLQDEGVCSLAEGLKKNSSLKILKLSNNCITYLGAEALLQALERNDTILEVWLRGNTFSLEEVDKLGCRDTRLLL

HEK293 = assay: cells; details: Homo sapiens;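 note: cells exposed to compound for 14 hours overnight before viability readout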
Large T antigen = Large T antigen (Simian virus 40, UniProt P03070); assay type: functional, Betapolyomavirus macacae;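 note: Confirmatory-stage PubChem screen for compounds that inhibit SV40 T antigen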
[3] = biological target: Induced myeloid leukemia cell differentiation protein Mcl-1 (Homo sapiens, UniProt Q07820); assay type: functional
Chain of Induced myeloid leukemia cell differentiation protein Mcl-1 (Q07820 whole entry): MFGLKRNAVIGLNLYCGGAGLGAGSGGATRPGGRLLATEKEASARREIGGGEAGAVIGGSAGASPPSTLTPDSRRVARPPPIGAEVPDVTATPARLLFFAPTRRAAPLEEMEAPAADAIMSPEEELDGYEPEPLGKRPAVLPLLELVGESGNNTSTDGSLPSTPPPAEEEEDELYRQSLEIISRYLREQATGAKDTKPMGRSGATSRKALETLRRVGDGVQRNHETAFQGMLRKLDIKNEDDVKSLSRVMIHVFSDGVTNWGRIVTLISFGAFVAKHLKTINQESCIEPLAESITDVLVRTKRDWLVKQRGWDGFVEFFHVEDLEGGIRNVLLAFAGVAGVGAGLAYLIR

[4] = biological target: Intestinal-type alkaline phosphatase (Homo sapiens, UniProt P09923); assay: Dose Response confirmation of uHTS hits from a small molecule inhibitors of human intestinal alkaline phosphatase via a luminescent assay. [Related pubchem assays (depositor defined):AID2544, AID2574]; assay type: functional
Albumin = Albumin (Bos taurus, UniProt P02769); assay: Counterscreen for inhibitors of T-cell receptor (TCR)-CD3 interaction: Fluorescence-based biochemical high throughput dose response assay to identify inhibitors of T-cell receptor (TCR)-CD3 interaction using a TAMRA-labeled BSA probe.; assay type: functional
Chain of Albumin (P02769 whole entry): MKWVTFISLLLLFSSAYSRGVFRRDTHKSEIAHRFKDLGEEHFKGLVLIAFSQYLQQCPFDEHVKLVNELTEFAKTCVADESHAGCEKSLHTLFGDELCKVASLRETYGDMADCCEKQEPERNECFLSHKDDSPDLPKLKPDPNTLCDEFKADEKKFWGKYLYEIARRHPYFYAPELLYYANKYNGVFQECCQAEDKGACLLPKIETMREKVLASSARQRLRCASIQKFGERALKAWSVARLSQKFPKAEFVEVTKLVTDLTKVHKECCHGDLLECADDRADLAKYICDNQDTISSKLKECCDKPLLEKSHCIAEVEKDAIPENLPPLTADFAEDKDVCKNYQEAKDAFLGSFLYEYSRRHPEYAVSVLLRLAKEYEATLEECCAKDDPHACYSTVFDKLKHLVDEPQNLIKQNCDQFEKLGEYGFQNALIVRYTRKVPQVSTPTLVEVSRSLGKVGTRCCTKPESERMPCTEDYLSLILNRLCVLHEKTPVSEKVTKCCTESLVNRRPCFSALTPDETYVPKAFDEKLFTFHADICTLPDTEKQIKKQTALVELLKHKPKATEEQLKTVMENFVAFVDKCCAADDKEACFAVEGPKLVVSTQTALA

Caspase-6 = Caspase-6 (Homo sapiens, UniProt P55212); assay: human caspase-6 inhibitors, dose response, biochemical, VEID-R110 fluorescence, cherry-pick (AID 720632)
Chain of Caspase-6 (P55212 24-179 limits assumed): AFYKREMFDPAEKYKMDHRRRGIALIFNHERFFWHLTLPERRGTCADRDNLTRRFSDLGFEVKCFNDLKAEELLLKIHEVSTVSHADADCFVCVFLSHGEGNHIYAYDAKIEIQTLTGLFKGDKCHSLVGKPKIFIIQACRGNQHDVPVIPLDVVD
Chain of Caspase-6 (P55212 194-293 limits assumed): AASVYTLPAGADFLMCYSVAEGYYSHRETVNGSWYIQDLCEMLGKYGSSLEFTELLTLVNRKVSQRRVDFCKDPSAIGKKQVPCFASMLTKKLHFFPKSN

Caspase-7 = Caspase-7 (Homo sapiens, UniProt P55210); assay: human caspase-7 inhibitors, dose response, selectivity assay for caspase-6 inhibitor project, biochemical, DEVD-R110 fluorescence, cherry-pick (AID 743295)
Caspase-8 = Caspase-8 (Homo sapiens, UniProt Q14790); assay: caspase-8 inhibition counter-screen, dose response, selectivity assay for caspase-6 inhibitor project, biochemical, Z-IETD-R110 fluorescence, cherry-picked samples (AID 743294)
Chain of Caspase-8 (Q14790 217-374 limits assumed): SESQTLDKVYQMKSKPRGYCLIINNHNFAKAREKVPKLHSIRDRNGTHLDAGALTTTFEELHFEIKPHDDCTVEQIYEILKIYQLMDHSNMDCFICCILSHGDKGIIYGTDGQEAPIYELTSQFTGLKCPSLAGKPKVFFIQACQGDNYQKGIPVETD
Chain of Caspase-8 (Q14790 385-479 limits assumed): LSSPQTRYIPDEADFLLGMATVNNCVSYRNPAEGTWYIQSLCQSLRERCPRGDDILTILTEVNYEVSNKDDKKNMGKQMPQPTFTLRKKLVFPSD

Caspase-3 = biological target: T2, Caspase-3 (Homo sapiens, UniProt P42574); assay: caspase-3 enzyme inhibitors, selectivity check, dose response, selectivity assay for caspase-6 allosteric inhibitor project, biochemical, fluorescence, cherry-picked samples (AID 743291)
T2 sequence (P42574 whole entry): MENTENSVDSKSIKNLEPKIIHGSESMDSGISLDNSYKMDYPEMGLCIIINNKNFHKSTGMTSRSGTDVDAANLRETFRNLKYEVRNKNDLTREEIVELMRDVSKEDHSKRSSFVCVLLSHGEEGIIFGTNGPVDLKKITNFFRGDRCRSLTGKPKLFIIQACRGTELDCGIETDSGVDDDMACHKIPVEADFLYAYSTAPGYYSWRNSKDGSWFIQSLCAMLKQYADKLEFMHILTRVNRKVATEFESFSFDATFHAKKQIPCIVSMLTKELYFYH

J774.A1 = assay: Confirmation of image-based Screening Assay for Inhibitors of Phagocytosis. [Related pubchem assays (depositor defined):AID1029, AID1643]; assay type: functional, cell-based; details: Mus musculus
[5] = cytotoxicity in HEK-293T cells, dose response, cytotoxicity control for TCR NF-kB inhibitor project, luminescence, T-cell screen hits (AID 489026); assay type: functional, cell-based;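 note: cells exposed to compound about 14 hours before the viability readout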
Leucine aminopeptidase = biological target: T3, Leucine aminopeptidase (Plasmodium falciparum 3D7, UniProt Q8IL11); assay: P. falciparum M17LAP inhibitors, primary screen, biochemical, fluorogenic H-Leu-NHMec substrate, 1536-well (AID 1619); assay type: functional
T3 sequence (Q8IL11 whole entry): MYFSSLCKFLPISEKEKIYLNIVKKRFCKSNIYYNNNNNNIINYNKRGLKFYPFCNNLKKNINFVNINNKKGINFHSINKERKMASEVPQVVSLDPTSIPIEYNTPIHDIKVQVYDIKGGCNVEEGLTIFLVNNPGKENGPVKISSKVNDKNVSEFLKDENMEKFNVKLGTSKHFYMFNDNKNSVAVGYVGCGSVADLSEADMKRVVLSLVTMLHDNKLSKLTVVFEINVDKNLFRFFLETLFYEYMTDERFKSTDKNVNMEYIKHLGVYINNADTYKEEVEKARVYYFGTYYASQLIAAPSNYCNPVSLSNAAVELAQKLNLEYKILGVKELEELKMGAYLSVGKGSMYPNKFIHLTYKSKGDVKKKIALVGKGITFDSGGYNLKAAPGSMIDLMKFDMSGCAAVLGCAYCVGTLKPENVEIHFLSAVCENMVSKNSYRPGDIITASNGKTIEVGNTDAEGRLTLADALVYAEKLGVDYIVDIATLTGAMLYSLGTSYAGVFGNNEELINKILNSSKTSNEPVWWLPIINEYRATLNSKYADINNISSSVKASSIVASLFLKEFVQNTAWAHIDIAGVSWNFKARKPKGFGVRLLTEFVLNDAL

Aminopeptidase N = biological target: T4, Aminopeptidase N (Plasmodium falciparum FcB1/Columbia, UniProt O96935); assay: P. falciparum M1AAP inhibitors, biochemical, fluorogenic H-Leu-NHMec substrate, 1536-well (AID 1445); parameters: species or system Plasmodium falciparum 3D7, 3D7
T4 sequence (O96935 whole entry): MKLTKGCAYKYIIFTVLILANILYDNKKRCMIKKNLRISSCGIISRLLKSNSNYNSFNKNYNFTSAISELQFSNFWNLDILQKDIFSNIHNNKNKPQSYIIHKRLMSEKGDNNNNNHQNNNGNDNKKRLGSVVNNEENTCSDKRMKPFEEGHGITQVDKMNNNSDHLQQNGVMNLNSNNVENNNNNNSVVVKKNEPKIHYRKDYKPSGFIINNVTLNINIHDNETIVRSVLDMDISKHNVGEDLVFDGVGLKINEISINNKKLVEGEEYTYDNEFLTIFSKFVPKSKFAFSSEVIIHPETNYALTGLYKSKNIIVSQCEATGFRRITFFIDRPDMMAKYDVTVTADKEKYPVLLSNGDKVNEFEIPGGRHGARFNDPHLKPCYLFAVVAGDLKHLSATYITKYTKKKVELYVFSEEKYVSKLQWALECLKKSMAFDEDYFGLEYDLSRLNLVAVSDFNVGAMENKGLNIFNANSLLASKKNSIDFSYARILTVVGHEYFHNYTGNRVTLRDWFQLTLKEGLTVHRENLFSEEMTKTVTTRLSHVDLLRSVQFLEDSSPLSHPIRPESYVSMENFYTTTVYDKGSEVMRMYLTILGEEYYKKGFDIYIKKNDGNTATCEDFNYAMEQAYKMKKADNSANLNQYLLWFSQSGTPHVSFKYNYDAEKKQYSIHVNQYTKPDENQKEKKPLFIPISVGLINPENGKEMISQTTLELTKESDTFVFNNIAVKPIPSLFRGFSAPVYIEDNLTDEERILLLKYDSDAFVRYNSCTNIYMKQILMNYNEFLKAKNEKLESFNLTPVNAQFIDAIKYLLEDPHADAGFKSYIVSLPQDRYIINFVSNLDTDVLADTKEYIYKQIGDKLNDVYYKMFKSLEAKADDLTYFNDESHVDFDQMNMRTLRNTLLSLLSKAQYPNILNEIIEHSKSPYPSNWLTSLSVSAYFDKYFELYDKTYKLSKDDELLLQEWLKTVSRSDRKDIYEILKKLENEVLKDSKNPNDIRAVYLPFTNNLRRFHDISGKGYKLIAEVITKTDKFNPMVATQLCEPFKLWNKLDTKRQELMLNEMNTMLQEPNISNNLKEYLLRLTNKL

[6] = microbe, parasite or virus in culture; assay type: functional; details: Mycobacterium tuberculosis
[7] = biological target: Tyrosine-protein phosphatase non-receptor type 7 (Homo sapiens, UniProt P35236); assay: Dose Response confirmation of compounds that inhibit HePTP. [Related pubchem assays (depositor defined):AID1059, AID1661, AID2085]; assay type: functional
Chain of Tyrosine-protein phosphatase non-receptor type 7 (P35236 whole entry): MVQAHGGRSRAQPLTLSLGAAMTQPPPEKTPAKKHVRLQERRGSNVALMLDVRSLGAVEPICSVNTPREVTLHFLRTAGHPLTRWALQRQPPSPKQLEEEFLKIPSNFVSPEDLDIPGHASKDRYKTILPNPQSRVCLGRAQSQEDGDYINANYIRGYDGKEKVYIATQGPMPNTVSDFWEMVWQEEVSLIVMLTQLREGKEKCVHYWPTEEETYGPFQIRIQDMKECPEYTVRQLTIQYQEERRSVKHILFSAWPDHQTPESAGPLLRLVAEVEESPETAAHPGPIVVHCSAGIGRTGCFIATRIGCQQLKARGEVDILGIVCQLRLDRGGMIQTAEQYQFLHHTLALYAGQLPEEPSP

[8] = biological target: Dual specificity protein phosphatase 3 (Homo sapiens, UniProt P51452); assay: Dose Response Confirmation of compounds that inhibit VHR1 in Fluorescent Assay. [Related pubchem assays (depositor defined):AID1661, AID1878]; assay type: functional
[9] = biological target: Cystic fibrosis transmembrane conductance regulator/Golgi-associated PDZ and coiled-coil motif-containing protein (Homo sapiens, UniProt P13569+Q9HD26); assay: CAL PDZ peptide-binding inhibitors, dose response, biochemical, fluorescence polarization, Cerulean-tagged CAL PDZ, cherry-picks (AID 504773)
Chain of Cystic fibrosis transmembrane conductance regulator/Golgi-associated PDZ and coiled-coil motif-containing protein (P13569 whole entry, other chains not shown): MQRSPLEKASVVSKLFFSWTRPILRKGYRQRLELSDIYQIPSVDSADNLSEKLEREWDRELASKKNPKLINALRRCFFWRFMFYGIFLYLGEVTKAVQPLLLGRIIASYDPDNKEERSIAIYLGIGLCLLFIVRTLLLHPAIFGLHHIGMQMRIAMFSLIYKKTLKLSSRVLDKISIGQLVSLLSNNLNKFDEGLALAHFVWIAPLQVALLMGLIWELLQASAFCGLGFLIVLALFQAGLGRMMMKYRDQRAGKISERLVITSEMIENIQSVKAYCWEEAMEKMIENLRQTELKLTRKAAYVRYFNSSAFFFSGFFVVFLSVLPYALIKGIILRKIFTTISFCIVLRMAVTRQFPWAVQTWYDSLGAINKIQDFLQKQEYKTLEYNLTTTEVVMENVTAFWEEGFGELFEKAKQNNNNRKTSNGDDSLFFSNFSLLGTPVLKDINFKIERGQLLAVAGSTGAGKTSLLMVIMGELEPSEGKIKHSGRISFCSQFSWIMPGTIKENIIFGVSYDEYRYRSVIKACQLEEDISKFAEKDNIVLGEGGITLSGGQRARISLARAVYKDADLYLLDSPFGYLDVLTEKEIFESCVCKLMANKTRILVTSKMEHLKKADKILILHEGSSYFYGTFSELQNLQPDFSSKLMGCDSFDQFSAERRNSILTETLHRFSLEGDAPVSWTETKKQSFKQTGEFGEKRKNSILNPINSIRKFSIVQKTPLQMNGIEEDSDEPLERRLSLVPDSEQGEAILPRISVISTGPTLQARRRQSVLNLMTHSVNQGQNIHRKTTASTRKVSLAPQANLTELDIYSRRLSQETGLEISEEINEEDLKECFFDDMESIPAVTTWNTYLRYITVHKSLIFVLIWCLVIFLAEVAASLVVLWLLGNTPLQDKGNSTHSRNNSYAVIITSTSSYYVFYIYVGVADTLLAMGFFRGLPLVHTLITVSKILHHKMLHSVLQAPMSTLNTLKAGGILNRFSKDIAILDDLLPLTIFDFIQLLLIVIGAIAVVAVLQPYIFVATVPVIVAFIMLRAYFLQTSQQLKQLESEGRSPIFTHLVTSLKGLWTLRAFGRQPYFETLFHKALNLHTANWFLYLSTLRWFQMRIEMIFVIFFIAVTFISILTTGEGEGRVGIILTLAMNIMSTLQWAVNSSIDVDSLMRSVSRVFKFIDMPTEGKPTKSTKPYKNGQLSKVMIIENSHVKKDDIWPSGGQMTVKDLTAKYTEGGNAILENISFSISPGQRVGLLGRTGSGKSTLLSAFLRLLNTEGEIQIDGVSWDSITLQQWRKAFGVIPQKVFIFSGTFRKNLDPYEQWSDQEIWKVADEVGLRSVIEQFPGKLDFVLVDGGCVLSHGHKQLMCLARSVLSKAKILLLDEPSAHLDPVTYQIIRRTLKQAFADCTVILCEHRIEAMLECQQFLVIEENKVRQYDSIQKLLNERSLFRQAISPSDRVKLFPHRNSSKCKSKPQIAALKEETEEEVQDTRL

Salmon testes DNA = assay: DNA intercalators displacing acridine orange, dose response, artefact control for KSHV LANA DNA-binding inhibitor project, biochemical, fluorescence polarization, cherry-picked samples, set 2 (AID 504727); parameters: species or system Salmonidae
ORF 73 = ORF 73 (Human herpesvirus 8, UniProt O40947); assay: inhibitors of C-LANA binding to LBS DNA, dose response, biochemical, fluorescence polarization, cherry-picked samples (AID 504725); parameters: species or system Human gammaherpesvirus 8;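 note: fluorescence polarization of a labeled DNA duplex reporting LANA DNA binding; potency is for inhibitors that block LANA binding to the DNA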
[10] = CFTR ΔF508 corrector activity in bronchial cells, dose response, human bronchial epithelial cells, plate reader, cherry-pick, two tests (AID 743267); assay type: functional, cell-based
[11] = tested on: Streptococcus sp. 'group A'; assay: growth inhibition of control SK(-) GAS strain, dose response, counter-screen for streptokinase expression inhibitor project, luminescence, kanamycin, BacTiterGlo, confirmation (AID 1900); assay type: functional, organism-based
Streptokinase A = biological target: T5, Streptokinase A (Streptococcus pyogenes serotype M1, UniProt P10520); assay: S. pyogenes streptokinase expression inhibitors, potency, dose response, plasminogen activation absorbance, OD405 (AID 1914); assay type: functional, Streptococcus pyogenes M1 GAS;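 note: secreted streptokinase activity via plasminogen activation per viability signal from cell pellet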
T5 sequence (P10520 whole entry): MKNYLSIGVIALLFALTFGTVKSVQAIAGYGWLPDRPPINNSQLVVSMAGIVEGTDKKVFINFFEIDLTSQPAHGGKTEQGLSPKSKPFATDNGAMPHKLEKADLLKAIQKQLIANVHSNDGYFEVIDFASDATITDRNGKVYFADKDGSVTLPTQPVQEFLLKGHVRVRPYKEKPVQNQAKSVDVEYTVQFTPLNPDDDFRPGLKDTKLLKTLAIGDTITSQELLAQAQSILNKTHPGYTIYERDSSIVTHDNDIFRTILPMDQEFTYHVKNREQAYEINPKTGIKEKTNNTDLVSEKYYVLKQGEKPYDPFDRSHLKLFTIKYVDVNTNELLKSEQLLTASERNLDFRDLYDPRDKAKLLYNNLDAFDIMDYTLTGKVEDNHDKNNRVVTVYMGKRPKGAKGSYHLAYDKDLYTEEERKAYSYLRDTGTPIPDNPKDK

Streptococcus = assay: Group A Streptococcus viability loss, dose response, counter-screen for streptokinase expression inhibitor project, luminescence, BacTiterGlo (AID 1915); assay type: functional, organism-based;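 note: potency for reduction of bacterial viability or growth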
X-box-binding protein 1 = X-box-binding protein 1 (Homo sapiens, UniProt P17861); assay type: functional, Cricetulus griseus;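 note: confirmatory dose-response counter-screen serving a CHOP assay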
Chain of X-box-binding protein 1 (P17861 whole entry): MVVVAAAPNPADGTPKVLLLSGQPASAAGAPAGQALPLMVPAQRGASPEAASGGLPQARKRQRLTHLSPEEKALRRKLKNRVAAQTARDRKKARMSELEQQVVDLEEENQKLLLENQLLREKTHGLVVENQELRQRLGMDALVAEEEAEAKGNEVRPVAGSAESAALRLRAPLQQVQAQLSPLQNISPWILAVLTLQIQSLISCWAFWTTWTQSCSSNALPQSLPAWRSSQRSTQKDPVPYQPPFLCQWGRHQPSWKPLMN

Chain of Tumor necrosis factor (P01375 whole entry, the tested form may be a part): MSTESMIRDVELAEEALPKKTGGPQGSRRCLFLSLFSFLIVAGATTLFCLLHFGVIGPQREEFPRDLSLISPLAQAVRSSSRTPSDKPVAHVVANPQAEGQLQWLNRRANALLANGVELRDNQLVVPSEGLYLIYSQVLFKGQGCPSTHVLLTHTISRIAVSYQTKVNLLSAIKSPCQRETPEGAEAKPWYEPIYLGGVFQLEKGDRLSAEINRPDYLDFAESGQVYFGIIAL

In the case of O=C(NC(=S)Nc1sc2c(c1C(=O)O)CCCC2)c1ccccc1, the IC50 (Tumor necrosis factor) is reported as 15.5 µM (active), the IC50 [1] is reported as 14.4 µM (active) and the IC50 [2] is reported as 17.3 µM (active). The IC50 (HEK293) was > 20 µM (inactive).

With O=c1oc2ccccc2c2oc3cc(O)c(O)cc3c12 the IC50 (Large T antigen) was 6.52 µM (active), the IC50 [3] was 6.69 µM (active) and the IC50 [4] was 3.52 µM (active). For the same compound, the IC50 (Albumin) was > 94.2 µM (inactive), the AC50 (Caspase-6) was 4.48 µM (active) and the AC50 (Caspase-7) was 59.8 µM (active). For the same compound, the AC50 (Caspase-8) was > 70 µM (inactive) and the AC50 (Caspase-3) was 22.1 µM (active).

In the case of CCOc1ccc2c(c1)sc(N)[n+]2Cc1cc(C)cc2cccnc12, the IC50 (J774.A1) is reported as 0.229 µM (active) and the IC50 [5] is reported as > 80 µM (inactive).

In the case of Cc1csc(NC(=O)CCCC(=O)O)c1-c1nc2ccccc2s1, the IC50 (Leucine aminopeptidase) is reported as 35.4 µM (active), the IC50 (Aminopeptidase N) is reported as 11.2 µM (active) and the CC50 [6] is reported as > 40 µM (active). For the same compound, the IC50 [7] was 3.28 µM (active) and the IC50 [8] was 2.67 µM (active).

For c1ccc(C(Nc2cccnc2)c2ccccc2)cc1, the AC50 [9] was 33 µM (active).

In the case of CN1C(=O)/C(=N\C2CCCCC2)c2c3ccccc3c(O)c3cccc1c23, the AC50 (Salmon testes DNA) is reported as 101 µM (active), the AC50 (ORF 73) is reported as 77.3 µM (active) and the AC50 [10] is reported as 8.48 µM (active).

With Cc1cccc(NCC(=O)N/N=C\c2cccc(Oc3ccccc3)c2)c1 the EC50 [11] was > 150 µM (not active), the EC50 (Streptokinase A) was > 150 µM (not active) and the EC50 (Streptococcus) was > 150 µM (not active). The “Absolute IC50 (XBP1)” value (X-box-binding protein 1) was 10 µM.
